# Assay results taken from patent publication US11584714B2 (priority 2018, dated 2023).
# Counter-ions that a name gives are not always drawn. Like-named read-outs stand apart in the source and are kept apart here.
# Assays:
# Format in all cases: biochemical
# [1] = biological target: human α-thrombin (Homo sapiens (Human), UniProt P00734); test: Enzymatic assay for thrombin (Boc-VPR-AMC substrate)
# [2] = tested on: Lectin Pathway; test: Lectin pathway activation assay in human serum (mannan-coated ELISA, C3c detection); details: 1% human serum
# [3] = biological target: MASP-2 (CCP1-CCP2-SP) (Homo sapiens (Human), UniProt O00187); test: biochemical
# [4] = biological target: mMASP-2 (Mus musculus (Mouse), UniProt Q91WP0); test: Enzymatic inhibition of mMASP-2
# [5] = MASP-2 inhibition versus thrombin
# [6] = selectivity for MASP-2 inhibition versus thrombin
# Sequence of mMASP-2 (Q91WP0 20-685): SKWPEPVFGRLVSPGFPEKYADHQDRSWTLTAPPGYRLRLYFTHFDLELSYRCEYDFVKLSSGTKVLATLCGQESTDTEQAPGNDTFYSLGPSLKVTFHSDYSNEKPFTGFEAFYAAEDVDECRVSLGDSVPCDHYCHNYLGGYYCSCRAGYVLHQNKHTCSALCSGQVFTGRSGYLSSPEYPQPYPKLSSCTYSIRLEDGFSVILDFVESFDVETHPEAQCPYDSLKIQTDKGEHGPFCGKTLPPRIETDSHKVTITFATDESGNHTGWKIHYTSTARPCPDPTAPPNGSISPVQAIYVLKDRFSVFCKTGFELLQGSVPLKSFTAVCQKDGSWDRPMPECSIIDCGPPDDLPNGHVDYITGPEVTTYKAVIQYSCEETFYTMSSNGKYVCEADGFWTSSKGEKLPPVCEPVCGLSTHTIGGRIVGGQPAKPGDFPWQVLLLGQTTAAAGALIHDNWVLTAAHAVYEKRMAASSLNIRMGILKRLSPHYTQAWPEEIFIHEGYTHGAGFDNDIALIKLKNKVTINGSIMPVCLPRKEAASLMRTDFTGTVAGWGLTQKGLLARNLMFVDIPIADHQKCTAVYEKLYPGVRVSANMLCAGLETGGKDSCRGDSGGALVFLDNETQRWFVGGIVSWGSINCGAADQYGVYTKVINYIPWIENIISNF
# Sequence of MASP-2 (CCP1-CCP2-SP) (O00187 445-686): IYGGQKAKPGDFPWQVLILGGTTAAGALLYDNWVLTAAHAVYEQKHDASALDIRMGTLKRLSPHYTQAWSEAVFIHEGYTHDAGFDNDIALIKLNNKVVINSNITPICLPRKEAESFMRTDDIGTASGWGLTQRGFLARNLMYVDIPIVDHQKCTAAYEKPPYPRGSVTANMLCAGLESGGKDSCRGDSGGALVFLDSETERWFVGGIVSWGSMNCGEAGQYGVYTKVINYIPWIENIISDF
compound,measurement,setting,value
C[C@H](NC(=O)[C@H]1C[C@@H](c2ccccc2)CCN1)C(=O)NCc1ccc(N)nc1 (stereo in doubt) [compound 1025],Ki,[1]; read-out: Thrombin Ki,> 25 µM
same,IC50,[2],500 to 5000 nM
N=C(N)c1ccc(CNC(=O)[C@@H]2CCN2C(=O)[C@H](N)C2CCCC2)cc1 [compound 1008],Ki,[1]; read-out: Thrombin Ki,< 0.5 µM
same,IC50,[2],5000 to 50000 nM
"N=C(N)c1ccc(CNC(=O)[C@@H]2CCN2C(=O)[C@H](N)c2ccccc2)cc1 [compound 1011, (S)-1-((R)-2-amino-2-phenylacetyl)-N-(4-carbamimidoylbenzyl)azetidine-2-carboxamide]",Ki,[1]; read-out: Thrombin Ki,< 0.5 µM
same,IC50,[2],500 to 5000 nM
same,MASP-2 vs. thrombin selectivity,[3]; [5],−− (less than 1.0-fold)
same,Ki,[3]; read-out: MASP-2 Ki,< 500 nM
N=C(N)c1ccc(CNC(=O)[C@@H]2CCN2C(=O)[C@@H](N)C2CCCCC2)cc1 [compound 1018],IC50,[2],> 50000 nM
N=C(N)c1ccc(CNC(=O)[C@@H]2CCN2C(=O)[C@H](N)Cc2ccccc2)cc1 [compound 1023],Ki,[1]; read-out: Thrombin Ki,< 0.5 µM
same,IC50,[2],5000 to 50000 nM
C[C@H](NC(=O)[C@H](N)C1Cc2ccccc2C1)C(=O)NCc1ccc(C(=N)N)cc1 [compound 1035],Ki,[1]; read-out: Thrombin Ki,< 0.5 µM
same,IC50,[2],< 50 nM
same,MASP-2 vs. thrombin selectivity,[3]; [5],** (5.0 to 25-fold)
same,Ki,[3]; read-out: MASP-2 Ki,< 500 nM
"Nc1nccc2cc(CNC(=O)[C@@H]3CCN3C(=O)[C@H](N)C3CCCCC3)ccc12 [compound 1041, (S)-1-((R)-2-Amino-2-cyclohexylacetyl)-N-((1-aminoisoquinolin-6-yl)methyl)azetidine-2-carboxamide dihydrochloride]",Ki,[1]; read-out: Thrombin Ki,< 0.5 µM
same,IC50,[2],5000 to 50000 nM
C[C@H](NC(=O)[C@H](N)CCCc1ccccc1)C(=O)NCc1ccc(C(=N)N)cc1 [compound 1042],Ki,[1]; read-out: Thrombin Ki,< 0.5 µM
same,IC50,[2],< 50 nM
same,MASP-2 vs. thrombin selectivity,[3]; [5],** (5.0 to 25-fold)
same,Ki,[3]; read-out: MASP-2 Ki,< 500 nM
N=C(N)c1ccc(CNC(=O)[C@@H]2CCCCN2C(=O)[C@H](N)C2CCCCC2)cc1 [compound 1051],Ki,[1]; read-out: Thrombin Ki,< 0.5 µM
same,IC50,[2],5000 to 50000 nM
C[C@H](NC(=O)[C@H]1Cc2ccccc2CN1)C(=O)NCc1ccc2c(N)nccc2c1 [compound 1053],IC50,[2],500 to 5000 nM
N=C(N)c1ccc(CNC(=O)CNC(=O)[C@H](NCC(=O)O)C2CCCCC2)cc1 [compound 1054],IC50,[2],5000 to 50000 nM
CC(C)(C)[C@@H](NCC(=O)O)C(=O)N1CC[C@H]1C(=O)NCc1ccc(C(=N)N)cc1 [compound 1055],Ki,[1]; read-out: Thrombin Ki,< 0.5 µM
same,IC50,[2],5000 to 50000 nM
N=C(N)c1ccc(CNC(=O)[C@@H]2CCN2C(=O)[C@H](N)CCCc2ccccc2)cc1 [compound 1069],Ki,[1]; read-out: Thrombin Ki,< 0.5 µM
same,IC50,[2],500 to 5000 nM
same,MASP-2 vs. thrombin selectivity,[3]; [5],−− (less than 1.0-fold)
same,Ki,[3]; read-out: MASP-2 Ki,< 500 nM
C[C@H](NC(=O)[C@H]1C[C@@H](c2ccccc2)CCN1)C(=O)NCc1cc(Cl)ccc1O [compound 1078],IC50,[2],500 to 5000 nM
same,Ki,[3]; read-out: MASP-2 Ki,< 500 nM
N=C(N)c1ccc(CNC(=O)[C@@H]2CCN2C(=O)[C@H](NCC(=O)O)C2CCCC2)cc1 [compound 1083],Ki,[1]; read-out: Thrombin Ki,< 0.5 µM
same,IC50,[2],5000 to 50000 nM
same,MASP-2 vs. thrombin selectivity,[3]; [5],−− (less than 1.0-fold)
same,Ki,[3]; read-out: MASP-2 Ki,< 500 nM
C[C@H](NC(=O)[C@H](NCC(=O)O)C1CCCCC1)C(=O)NCc1ccc(C(=N)N)cc1 [compound 1094],Ki,[1]; read-out: Thrombin Ki,< 0.5 µM
same,IC50,[2],5000 to 50000 nM
same,MASP-2 vs. thrombin selectivity,[3]; [5],−− (less than 1.0-fold)
same,Ki,[3]; read-out: MASP-2 Ki,< 500 nM
Cc1cccc(C2CCNC(C(=O)N[C@@H](C)C(=O)NCc3ccc(C(=N)N)cc3)C2)c1 (stereo partly shown) [compound 1098],IC50,[2],< 50 nM
same,Ki,[3]; read-out: MASP-2 Ki,< 500 nM
C[C@H](NC(=O)[C@H](N)Cc1csc2ccccc12)C(=O)NCc1ccc(C(=N)N)cc1 [compound 1099],Ki,[1]; read-out: Thrombin Ki,< 0.5 µM
same,IC50,[2],50 to 500 nM
same,MASP-2 vs. thrombin selectivity,[3]; [5],−− (less than 1.0-fold)
same,Ki,[3]; read-out: MASP-2 Ki,< 500 nM
N=C(N)c1ccc(CNC(=O)[C@@H]2CCN2C(=O)[C@@H](Cc2ccccc2)NCC(=O)O)cc1 [compound 1109],Ki,[1]; read-out: Thrombin Ki,< 0.5 µM
same,IC50,[2],> 50000 nM
N=C(N)c1ccc(CNC(=O)[C@@H]2CCN2C(=O)[C@@H](CC2CCCCC2)NCC(=O)O)cc1 [compound 1114],Ki,[1]; read-out: Thrombin Ki,< 0.5 µM
same,IC50,[2],500 to 5000 nM
same,MASP-2 vs. thrombin selectivity,[3]; [5],−− (less than 1.0-fold)
same,Ki,[3]; read-out: MASP-2 Ki,< 500 nM
N=C(N)c1ccc(CNC(=O)[C@@H]2CCCN2C(=O)[C@H](NCC(=O)O)C2CCCCC2)cc1 [compound 1115],Ki,[1]; read-out: Thrombin Ki,< 0.5 µM
same,IC50,[2],500 to 5000 nM
same,MASP-2 vs. thrombin selectivity,[3]; [5],−− (less than 1.0-fold)
same,Ki,[3]; read-out: MASP-2 Ki,< 500 nM
"N=C(N)c1ccc(CNC(=O)[C@@H]2CCN2C(=O)[C@H](NCC(=O)O)C2CCCCC2)cc1O [compound 1116, ((R)-2-((S)-2-((4-Carbamimidoyl-3-hydroxybenzyl)carbamoyl)azetidin-1-yl)-1-cyclohexyl-2-oxoethyl)glycine]",Ki,[1]; read-out: Thrombin Ki,< 0.5 µM
same,IC50,[2],5000 to 50000 nM
C[C@H](NC(=O)[C@H](NCC(=O)O)C1Cc2ccccc2C1)C(=O)NCc1ccc(C(=N)N)cc1 [compound 1123],IC50,[2],500 to 5000 nM
N=C(N)c1ccc(CNC(=O)[C@@H]2CCCCN2C(=O)[C@H](NCC(=O)O)C2CCCCC2)cc1 [compound 1127],Ki,[1]; read-out: Thrombin Ki,< 0.5 µM
same,IC50,[2],5000 to 50000 nM
N=C(N)c1ccc(CNC(=O)[C@@H]2CCN2C(=O)[C@H](NCC(=O)O)C2Cc3ccccc3C2)cc1 [compound 1129],Ki,[1]; read-out: Thrombin Ki,< 0.5 µM
same,IC50,[2],500 to 5000 nM
same,MASP-2 vs. thrombin selectivity,[3]; [5],−− (less than 1.0-fold)
same,Ki,[3]; read-out: MASP-2 Ki,< 500 nM
"CCNC(=O)COc1ccc(Cl)cc1CNC(=O)[C@H](C)NC(=O)[C@H](N)CCc1ccccc1 [compound 1137, (R)-2-Amino-N—((S)-1-((5-chloro-2-(2-(ethylamino)-2-oxoethoxy)benzyl)amino)-1-oxopropan-2-yl)-4-phenylbutanamide]",IC50,[2],> 50000 nM
C[C@H](NC(=O)[C@@H](CCc1ccccc1)NCCCc1ccc(O)cc1)C(=O)NCc1ccc(C(=N)N)cc1 [compound 1145],IC50,[2],50 to 500 nM
same,Ki,[3]; read-out: MASP-2 Ki,< 500 nM
C[C@H](NC(=O)[C@H](N)C1Cc2ccccc2C1)C(=O)NCc1ccc2nc(N)n(C)c2c1 [compound 1171],Ki,[1]; read-out: Thrombin Ki,> 25 µM
same,IC50,[2],> 50000 nM
"Cc1nc(N)ccc1CNC(=O)[C@H](C)NC(=O)[C@H]1C[C@H](Cc2cccc3cnccc23)CN1 [compound 1343, (2R,4S)—N—((S)-1-(((6-Amino-2-methylpyridin-3-yl)methyl)amino)-1-oxopropan-2-yl)-4-(isoquinolin-5-ylmethyl)pyrrolidine-2-carboxamide Di-trifluoroacetate salt]",IC50,[2],50 to 500 nM
"C[C@H](NC(=O)[C@H]1C[C@H](c2ccccc2)CN1)C(=O)NCc1cc2c(Br)cncc2[nH]1 [compound 1493, (2R,4R)—N—((S)-1-(((4-Bromo-1H-pyrrolo[2,3-c]pyridin-2-yl)methyl)amino)-1-oxopropan-2-yl)-4-phenylpyrrolidine-2-carboxamide Di-trifluoroacetate salt]",Ki,[1]; Thrombin Ki (μM),10 to 25 µM
same,Ki,[4]; read-out: mMASP-2 Ki,> 25000 nM
same,Ki,[3],10000 to 25000 nM
same,MASP-2 vs. thrombin selectivity,[3]; [6],* (≥1.0 to <5.0-fold)
"C[C@H](NC(=O)[C@H]1C[C@H](Cc2ccc(F)c(Cl)c2)CN1)C(=O)NCc1cc2cnccc2[nH]1 [compound 1494, (2R,4S)—N—((S)-1-(((1H-Pyrrolo[3,2-c]pyridin-2-yl)methyl)amino)-1-oxopropan-2-yl)-4-(3-chloro-4-fluorobenzyl)pyrrolidine-2-carboxamide Di-trifluoroacetate salt]",Ki,[1]; Thrombin Ki (μM),2.5 to 10 µM
same,Ki,[4]; read-out: mMASP-2 Ki,< 500 nM
same,Ki,[3]; read-out: MASP-2 Ki,< 500 nM
same,MASP-2 vs. thrombin selectivity,[3]; [6],**** (≥100-fold)
"C[C@H](NC(=O)[C@H]1C[C@H](c2ccccc2)CN1)C(=O)NCc1cc2ccncc2[nH]1 [compound 1495, (2R,4R)—N—((S)-1-(((1H-Pyrrolo[2,3-c]pyridin-2-yl)methyl)amino)-1-oxopropan-2-yl)-4-phenylpyrrolidine-2-carboxamide Di-trifluoroacetate salt]",Ki,[1]; read-out: Thrombin Ki,> 25 µM
same,Ki,[4],500 to 2500 nM
same,Ki,[3]; read-out: MASP-2 Ki,2500 to 10000 nM
same,MASP-2 vs. thrombin selectivity,[3]; [6],** (≥5.0 to <25-fold)
"CCN1CC[C@H](c2ccccc2)C[C@@H]1C(=O)N[C@@H](C)C(=O)NCc1ccc(N)nc1C [compound 1496, (2R,4S)—N—((S)-1-(((6-Amino-2-methylpyridin-3-yl)methyl)amino)-1-oxopropan-2-yl)-1-ethyl-4-phenylpiperidine-2-carboxamide]",Ki,[1]; read-out: Thrombin Ki,> 25 µM
same,Ki,[4]; read-out: mMASP-2 Ki,500 to 2500 nM
same,Ki,[3]; read-out: MASP-2 Ki,< 500 nM
"Cc1nc(N)ccc1CNC(=O)[C@H](C)N(C)C(=O)[C@H]1C[C@H](Cc2ccc(Br)cc2)CN1 [compound 1497, (2R,4S)—N—((S)-1-(((6-Amino-2-methylpyridin-3-yl)methyl)amino)-1-oxopropan-2-yl)-4-(4-bromobenzyl)-N-methylpyrrolidine-2-carboxamide Di-trifluoroacetate salt]",Ki,[1]; Thrombin Ki (μM),2.5 to 10 µM
same,Ki,[4]; read-out: mMASP-2 Ki,2500 to 10000 nM
same,Ki,[3]; read-out: MASP-2 Ki,< 500 nM
same,MASP-2 vs. thrombin selectivity,[3]; [6],** (≥5.0 to <25-fold)
